Data on 73 molecules can be found in PubChem BioAssay AID179 (DTP/NCI, 2004).

The subject of the test is CEM cells HIV-1 protection, formazan growth assay. The test is described as follows: NCI AIDS Antiviral Assay. Particulars: for IC50: measured here: growth of uninfected CEM cells. Summed up: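 Category rules: moderately active means at least 50% protection on retest, and confirmed active means 100% protection reproducibly. The underlying data came from a formazan growth assay in HIV-1-infected CEM cells.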

The term EC50 denotes the concentration at which the effect is half-maximal. For orientation: IC50 means the point on the concentration scale where inhibition reaches its midpoint.

Several values for one entry are separate records, joined by “and”; a condition that tells them apart may be missing. Identical values can stand only once. Activity calls are given as the source filed them.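 Rule for the calls: active = compounds giving half or more protection of infected cells from virus-caused growth loss, again on retest; inactive = the rest.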

Turning to `Cc1cc2c(C(C)C)c(O)c(O)c(C=Nc3ccccc3S)c2c(O)c1-c1c(C)cc2c(C(C)C)c(O)c(O)c(C=Nc3ccccc3S)c2c1O`, the EC50 is more than 200 µM and the half-inhibitory concentration (IC50) was 16.2 µM. On the same counts, the results for `Cc1ccc(-c2cc(=S)ss2)cc1` are more than 200 µM and 166 µM.

As for `Cc1cccc(/C=N/NC(=S)N2CCCC2)n1`, the EC50 was more than 100 µM and the IC50 amounted to 0.115 µM.

On to `Nc1ccc(C(=O)NN2C(=O)C(Cl)C2c2cccc(O)c2)cc1` (stereo not given), for which the EC50 is more than 200 µM and the IC50 amounted to 9.55 µM. With `CC(=O)N1C(=O)/C(=C\C(=O)c2ccc(Cl)cc2)c2ccccc21`, the EC50 is more than 100 µM and the IC50 amounted to 1.48 µM. Turning to `C=C1CC2(CCS(=O)(=O)c3ccccc32)OC1=O` (stereo not given), the EC50 was more than 355 µM and the IC50 is 1.51 µM.

Take `Cc1c2[nH]c3ccc(Br)cc3c2c(C)c2[nH]ccc(=O)c12`: the EC50 was more than 3.31 µM and the IC50 is more than 3.31 µM. For the molecule `COc1ccc(NC(=O)CC(=O)n2nc(-c3ccccc3)c(N=Nc3ccccc3C(=O)O)c2-c2ccccc2)cc1`, the EC50 is more than 17.8 µM and the IC50 is more than 17.8 µM.

On to `O=C1c2cccc([N+](=O)[O-])c2C(=O)N1CC[P+](c1ccccc1)(c1ccccc1)c1ccccc1`, for which the EC50 was more than 200 µM and the IC50 is more than 200 µM. Consider `N=C1N(c2ccccc2)C(N)(N)SSC(N)(N)N1c1ccccc1`, for which the EC50 is more than 141 µM and the IC50 stood at 17.4 µM. On to `CO/C=C/CCCN(CC#N)Cc1ccccc1`, for which the EC50 is more than 27.5 µM and the IC50 was more than 27.5 µM. In the case of `CCOC(=O)C(=O)C(/C(=N/N(C)C)C(=O)Nc1ccc(C)cc1C)c1nc2ccccc2[nH]c1=O` (stereo not given), the EC50 was more than 380 µM and the IC50 came to 219 µM.

As to `COc1ccc(CCc2ncc[nH]2)cc1`, the EC50 was more than 708 µM and the IC50 was more than 708 µM. `O=C1CN(CCN2CCOCC2)CC(=O)N2Cc3ccccc3CN12`: the EC50 is more than 200 µM and the IC50 was more than 200 µM. Take `CCOC(=O)C/C(O)=C(/C=N/C(=S)NNC(C)=O)C(=O)OCC`: the EC50 is more than 200 µM and the IC50 is more than 200 µM. Take `O=C(N/C(=C\c1ccc(Br)cc1)c1nc2ccccc2s1)c1ccccc1`: the EC50 is more than 22.9 µM and the IC50 was more than 22.9 µM. On to `O=C[C@@H](CO)O[C@H](C=O)c1c[nH]c(=O)[nH]c1=O`, for which the EC50 is more than 1020 µM and the IC50 worked out at 107 µM. Regarding `O=C1NC(Cc2ccc([N+](=O)[O-])cc2)C(=O)N2CCCC12` (stereo not given), the EC50 was more than 200 µM and the IC50 was more than 200 µM. With `COc1ccc(-c2cc(=O)c3c(O)cccc3o2)cc1`, the EC50 was more than 200 µM and the half-inhibitory concentration (IC50) is more than 200 µM. On to `Clc1ccc(-c2cc[s+]s2)cc1`, for which the EC50 is more than 200 µM and the IC50 is 33.1 µM. On the same counts, the results for `Cn1cncc1CC1COC(=O)C1C(O)c1ccccc1` (stereo not given) are more than 200 µM and more than 200 µM.

On to `CCOC(=O)c1cc(OC(C)=O)c2ccccc2c1`, for which the EC50 was more than 100 µM and the IC50 turned out to be 95.5 µM. In the same order, the values of `Cc1ccc(S(=O)(=O)n2ccnc2)cc1` are more than 200 µM and more than 200 µM.

Take `O=[N+]([O-])c1ccc([As](=O)(O)O)cc1`: the EC50 was more than 200 µM and the IC50 was more than 200 µM. On to `NCC1OC(OC2C(N)CC(N)C(O)C2OC2OC(CO)C(O)C2O)C(N)C(O)C1O` (stereo not given), for which the result was inactive.

Turning to `N#CC(/C=C/c1ccccc1)Nc1ccccc1` (stereo not given), the EC50 was more than 22.4 µM and the IC50 was more than 22.4 µM. For the molecule `CC1(Br)C(=O)C(O)=C(Br)C1=O` (stereo not given), the EC50 is more than 200 µM and the IC50 was 19.5 µM. `Cc1ccc(-c2nnc(-c3nn(-c4ccccc4)c4nc5ccccc5nc34)o2)cc1`: the outcome was inactive. As to `Nc1cccc(C#Cc2cccc(C#Cc3cccc(N)n3)n2)n1`, the EC50 was more than 200 µM and the IC50 was determined as 75.9 µM. On the same counts, the results for `Cn1c(C(O)(Cc2ccccn2)Cc2ccccn2)cc2ccccc21` are more than 97.7 µM and 72.4 µM.

Take `CC1=Cc2cc3[n-]c(cc4nc(cc5[n-]c(cc1n2)c(C)c5CCC(=O)O)C(CCC(=O)O)=C4C)cc3C.[Cu+2]`: the EC50 was more than 8.71 µM and the IC50 was 7.59 µM.

In the case of `O=C1NS(=O)(=O)c2ccccc21.[Cu+2]`, the EC50 was more than 1150 µM and the IC50 is 58.9 µM. Turning to `COc1ccc(/C=C2\CCCCCC2=O)cc1`, the EC50 was more than 200 µM and the IC50 was more than 200 µM. Consider `CCC(C)(C)c1ccc(OCCCCNC(=O)c2ccc3ccccc3c2O)c(C(C)(C)CC)c1`, for which the EC50 was more than 200 µM and the IC50 turned out to be 7.41 µM.

Take `CCOP(=O)(OCC)/C(C#N)=C/c1ccc([N+](=O)[O-])cc1`: the EC50 is more than 813 µM and the IC50 turned out to be 575 µM.

As to `CC1=C(C)C2(C#N)C(=O)N3C(=NC(c4ccccc4)NC3c3ccccc3)C2(C#N)C(c2ccccc2)N1` (stereo not given), the EC50 was more than 100 µM and the IC50 was more than 100 µM. With `CCOC(=O)C1(C/C=C\CBr)CCCCCCC1=O` (stereo not given), the EC50 is more than 200 µM and the IC50 was determined as 16.2 µM. `CC(C)S(=O)(=O)c1s[nH]c(=O)c1-c1ccccc1`: the EC50 is more than 178 µM and the IC50 is more than 178 µM. For the molecule `O=C1C(Cl)=CC(=C2C=C(Cl)C(=O)C(Cl)=C2)C=C1Cl`, the EC50 is more than 200 µM and the IC50 turned out to be 42.7 µM.

As for `O=C1c2c(ccc3c2CCCC3)CC1Cc1ccc2c(c1)CCCC2` (stereo not given), the EC50 was more than 200 µM and the IC50 was more than 200 µM.

Turning to `CC(=O)c1sc2c(c1OC(=O)c1ccc(Cl)cc1)c(=O)n(-c1ccccc1)c(=S)n2-c1ccccc1`, the EC50 is more than 200 µM and the IC50 was found to be 0.776 µM. On to `C=C(c1ccccc1)N1N=NC2CCOC21` (stereo not given), for which the EC50 was more than 200 µM and the IC50 was more than 200 µM. Consider `COc1cc([N+](=O)[O-])c(S(=O)(=O)O)cc1-[n+]1nc(C(=O)Nc2ccccc2)nn1-c1ccc([N+](=O)[O-])c(S(=O)(=O)[O-])c1`, for which the EC50 is more than 200 µM and the IC50 was more than 200 µM. For `C[C@H](CCC(=O)O)[C@H]1CC[C@H]2[C@@H]3[C@@H](O)C[C@@H]4C[C@H](O)CC[C@]4(C)[C@H]3C[C@H](O)[C@]12C`, the EC50 is more than 200 µM and the IC50 is more than 200 µM. For the molecule `O=C1c2cccc3cccc(c23)C(=O)N1CCNCCN1C(=O)c2cccc3cccc(c23)C1=O`, the EC50 is more than 29.5 µM and the IC50 came out at 10.5 µM.

`C=CCP(=O)(CC=C)C(Cl)Cl`: the EC50 is more than 200 µM and the IC50 was more than 200 µM.

Take `O=C1C(=O)c2ccccc2C(O)=C1C(CCc1ccccc1)C1=C(O)c2ccccc2C(=O)C1=O`: the EC50 was more than 200 µM and the IC50 is 55 µM.

As for `O=C1Cc2ccccc2N1/N=C\c1ccc(O)cc1`, the EC50 was more than 372 µM and the IC50 is 39.8 µM. On the same counts, the results for `CC1(c2ccccc2)CC(c2ccccc2)=NO1` (stereo not given) are more than 57.5 µM and more than 57.5 µM. `CCCC1OC(CCC)C2CCCOC2O1` (stereo not given): the EC50 is more than 200 µM and the IC50 is more than 200 µM. Take `Nn1c(SCc2nc3ccccc3[nH]2)nnc1-c1ccccc1`: the EC50 is more than 200 µM and the IC50 was more than 200 µM. For `CC(NC(=O)c1ccccc1)NC(=O)C(C)C(=O)Nc1ccccc1` (stereo not given), the outcome was inactive. Turning to `CN1CSCSC1`, the result was inactive.

Regarding `CC[n+]1c(-c2ccccc2)c2cc(N)ccc2c2ccc(N)cc21`, the EC50 is more than 708 µM; the IC50 was 0.794 µM and 0.525 µM.

As to `O=C(Cc1csc(-c2nc(CC(=O)NNc3ccccc3)cs2)n1)NNc1ccccc1`, the EC50 was more than 145 µM and the IC50 was more than 145 µM.

Regarding `O=C(/C=C/c1ccc2c(c1)OCO2)c1ccc(O)cc1`, the EC50 is more than 200 µM and the IC50 was 29.5 µM. For `Nc1cc(C(=O)O)ccc1O`, the EC50 is more than 200 µM and the IC50 is 39.8 µM.

Consider `C=C(C)[C@@]1(O)O[C@H]2C[C@@]3(C)OC(=CC3=O)/C(C)=C\[C@@H]3OC(=O)[C@@]1(C)[C@H]32`, for which the EC50 was more than 200 µM and the IC50 stood at 5.25 µM. For the molecule `NS(=O)(=O)c1ccc(Nc2c3ccccc3nc3ncccc23)cc1`, the EC50 is more than 200 µM and the concentration for half-maximal inhibition (IC50) is more than 200 µM. For `CC(=O)[C@@H]1[C@@H](OC(=O)CCC(C)COC2OC(CO)C(O)C(O)C2O)C[C@H]2[C@@H]3CC=C4C[C@@H](OC5OC(CO)C(OC6OC(C)C(O)C(O)C6O)C(O)C5OC5OC(C)C(O)C(O)C5O)CC[C@]4(C)[C@H]3CC[C@]12C` (stereo not given in full), the EC50 is more than 200 µM and the IC50 is more than 200 µM.

With `O=C(NNC(=O)c1nsc2ccccc12)c1ccc(Cl)cc1`, the EC50 is more than 8.13 µM and the IC50 is more than 8.13 µM. With `CC1(C)C(=O)C(C)(C)C1=NNC(N)=S`, the EC50 was more than 417 µM and the IC50 stood at 263 µM.

Consider `COC(=O)C(Cc1nc2ccccc2[nH]c1=O)C(=O)C(=O)Nc1cc(C(F)(F)F)ccc1Cl` (stereo not given), for which the EC50 is more than 74.1 µM and the IC50 came out at 7.41 µM. In the same order, the values of `O=C(NC(=O)c1cn(C2OC(CO)C(O)C2O)c(=O)[nH]c1=O)OCc1ccccc1` (stereo not given) are more than 589 µM and more than 589 µM. In the case of `C[N+](C)(Cc1ccco1)c1ccccc1`, the EC50 was more than 3.16 µM and the IC50 was more than 3.16 µM. As to `CC(C(=O)O)c1ccc2c(c1)Cc1ccccc1-2` (stereo not given), the EC50 was more than 200 µM and the IC50 is more than 200 µM. Consider `O=C1C(=C2C(=O)c3ccccc3[N+]2=O)N([O-])c2ccccc21`, for which the result was inactive.

On to `CC(=S)NC=C(C(N)=O)C(N)=O`, for which the EC50 is more than 200 µM and the IC50 is more than 200 µM.

With `CCO[C@@H]1OC(=O)[C@H]2C(c3ccccc3)=NO[C@@H]12`, the EC50 is more than 275 µM and the IC50 was more than 275 µM.

Take `CCOP(=O)(OCC)/C(C#N)=C/c1ccc(C#N)cc1`: the EC50 is more than 123 µM and the IC50 was more than 123 µM.

As to `CN(C)CCC(=O)c1ccccc1`, the outcome was inactive. On to `CC(=O)N1C(c2[nH]c3ccccc3c2-c2ccccc2)CCN1c1ccccc1` (stereo not given), for which the EC50 was more than 200 µM and the IC50 stood at 74.1 µM. In the same order, the values of `N#CC(C#N)=C/C=C/c1c(Cl)cccc1Cl` are more than 200 µM and 2.57 µM.
